Patent US20250114345A1, “COMPOUNDS AND COMPOSITIONS AS CBP/P300 DEGRADERS AND USES THEREOF” (Oncopia Therapeutics, Inc. d/b/a/ SK Life Science Labs, priority 2023, published 2025)

Key:
[1] = molecular target: T1, CBP (Homo sapiens, UniProt Q92793); test: CBP degradation, HiBit technology in A549 CBP HiBit cells (24 h); type: cell-based; conditions: 24 hrs post treatment
T1 construct: host or cells: A549 CBP HiBit cells
Experimental: p300 and CBP degradation potency and Dmax were determined using in cell western (ICW) assay technology in H1299 cells or HiBit technology in A549 HiBit cells.
A549 P300 HiBit and A549 CBP HiBit cells were plated in separate 384-well, TC treated, white-opaque, flat-bottomed microplate. Cells were plated at a cell density of 0.2×10^4 cells per well in assay media comprised of F-12K, 10% heat inactivated FBS, and 1% penicillin/streptomycin. Assay microplates containing HiBit cells were placed in a 37° C., 5% CO2, tissue culture incubator and left to equilibrate overnight. The next day cells were treated with serial dilutions of test compound made up of 10 mM stock solutions in DMSO. 384-Well plates containing treated cells were then placed back into a 37° C., 5% CO2, tissue culture incubator. Assay microplates containing A549 P300 HiBit cells were incubated for 2 hrs post treatment before P300 destruction was assessed, while microplates containing A549 CBP HiBit cells were incubated for 24 hrs post treatment before CBP destruction was determined. On the day of each assay time point, microplates were removed from the tissue culture incubator and prepared HiBit Lytic detection buffer (Promega, cat #N3O40) was added to each plate. Plates were covered with aluminum foil and incubated for ten minutes at room temperature on an orbital shaker. After incubation, luminescent signal of each plate was measured using the Envision instrument (Perkin Elmer).

[2] = molecular target: T2, p300 (Homo sapiens, UniProt Q09472); test: P300 degradation, HiBit technology in A549 P300 HiBit cells (2 h); type: cell-based; conditions: 2 hrs post treatment; for Dmax: A549, A549 P300 HiBit cells; for DC50 / P300 A549 2 h HiBit DMax (%): A549 P300 HiBit cells
T2 construct: host or cells: A549 P300 HiBit cells
T2 sequence (Q09472 whole entry): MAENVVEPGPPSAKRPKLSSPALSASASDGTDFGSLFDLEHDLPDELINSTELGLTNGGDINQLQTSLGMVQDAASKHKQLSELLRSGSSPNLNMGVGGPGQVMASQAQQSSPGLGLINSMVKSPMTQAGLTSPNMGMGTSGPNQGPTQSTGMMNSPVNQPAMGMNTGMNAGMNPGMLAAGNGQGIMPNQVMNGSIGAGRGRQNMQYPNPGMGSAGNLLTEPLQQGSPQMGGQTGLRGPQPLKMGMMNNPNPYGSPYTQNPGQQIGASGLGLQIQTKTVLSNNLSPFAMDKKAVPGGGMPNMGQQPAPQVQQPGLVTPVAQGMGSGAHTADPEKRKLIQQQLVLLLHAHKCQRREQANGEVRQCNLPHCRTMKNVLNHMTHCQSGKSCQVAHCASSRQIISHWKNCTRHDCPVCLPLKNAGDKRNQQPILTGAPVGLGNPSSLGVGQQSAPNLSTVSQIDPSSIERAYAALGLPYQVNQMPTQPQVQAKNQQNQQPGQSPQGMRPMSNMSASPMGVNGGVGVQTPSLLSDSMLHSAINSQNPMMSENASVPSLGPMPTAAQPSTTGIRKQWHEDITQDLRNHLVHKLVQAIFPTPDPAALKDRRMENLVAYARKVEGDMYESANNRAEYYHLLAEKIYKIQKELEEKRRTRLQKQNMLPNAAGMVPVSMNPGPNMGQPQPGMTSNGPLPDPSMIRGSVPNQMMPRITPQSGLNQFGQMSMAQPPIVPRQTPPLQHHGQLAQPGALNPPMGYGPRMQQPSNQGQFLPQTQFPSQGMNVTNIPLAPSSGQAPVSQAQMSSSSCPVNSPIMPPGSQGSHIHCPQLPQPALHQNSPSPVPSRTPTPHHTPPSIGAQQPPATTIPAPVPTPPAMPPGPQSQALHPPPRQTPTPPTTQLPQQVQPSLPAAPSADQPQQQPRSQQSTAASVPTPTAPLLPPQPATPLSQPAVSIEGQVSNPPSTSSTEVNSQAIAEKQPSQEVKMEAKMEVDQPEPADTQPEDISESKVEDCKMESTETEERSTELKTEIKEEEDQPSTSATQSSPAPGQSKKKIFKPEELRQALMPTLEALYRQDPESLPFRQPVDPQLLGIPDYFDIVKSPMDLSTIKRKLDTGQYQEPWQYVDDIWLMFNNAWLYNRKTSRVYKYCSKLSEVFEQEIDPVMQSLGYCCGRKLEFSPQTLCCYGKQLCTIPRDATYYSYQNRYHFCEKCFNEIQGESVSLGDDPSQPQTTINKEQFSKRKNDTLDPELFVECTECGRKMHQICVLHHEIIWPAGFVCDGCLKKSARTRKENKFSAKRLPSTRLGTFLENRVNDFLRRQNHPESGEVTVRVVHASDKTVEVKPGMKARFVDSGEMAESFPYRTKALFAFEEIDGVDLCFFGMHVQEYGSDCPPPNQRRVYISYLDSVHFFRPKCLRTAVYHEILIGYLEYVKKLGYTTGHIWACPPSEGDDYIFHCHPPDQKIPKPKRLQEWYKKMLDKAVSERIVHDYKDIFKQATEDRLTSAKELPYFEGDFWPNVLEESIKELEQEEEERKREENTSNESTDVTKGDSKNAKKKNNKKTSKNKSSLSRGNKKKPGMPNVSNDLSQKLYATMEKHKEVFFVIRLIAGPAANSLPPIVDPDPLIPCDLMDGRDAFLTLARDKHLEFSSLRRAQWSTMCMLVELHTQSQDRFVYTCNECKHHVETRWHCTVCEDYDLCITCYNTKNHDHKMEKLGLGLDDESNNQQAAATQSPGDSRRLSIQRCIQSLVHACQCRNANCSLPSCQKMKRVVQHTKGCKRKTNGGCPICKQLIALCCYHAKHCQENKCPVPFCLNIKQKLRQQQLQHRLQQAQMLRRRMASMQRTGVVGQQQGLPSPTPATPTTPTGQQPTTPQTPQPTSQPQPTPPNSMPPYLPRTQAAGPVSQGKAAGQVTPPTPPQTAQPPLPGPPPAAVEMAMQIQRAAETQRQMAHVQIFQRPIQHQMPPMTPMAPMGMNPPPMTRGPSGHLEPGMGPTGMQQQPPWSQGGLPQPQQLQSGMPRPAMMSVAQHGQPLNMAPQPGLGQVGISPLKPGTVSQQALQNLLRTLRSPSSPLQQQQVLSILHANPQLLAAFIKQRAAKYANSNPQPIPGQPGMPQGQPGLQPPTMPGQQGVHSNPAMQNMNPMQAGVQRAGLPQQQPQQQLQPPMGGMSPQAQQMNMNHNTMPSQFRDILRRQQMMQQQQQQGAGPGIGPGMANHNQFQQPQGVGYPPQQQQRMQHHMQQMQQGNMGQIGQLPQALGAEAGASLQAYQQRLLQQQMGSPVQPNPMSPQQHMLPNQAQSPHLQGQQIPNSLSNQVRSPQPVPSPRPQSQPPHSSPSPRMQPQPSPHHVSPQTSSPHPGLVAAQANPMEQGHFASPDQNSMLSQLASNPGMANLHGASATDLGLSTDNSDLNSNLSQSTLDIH
How it was run: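 Degradation potency and Dmax came from HiBiT luminescence in tagged A549 cells treated with serially diluted compound (DMSO stocks at 10 mM) after overnight equilibration in F-12K with 10% heat-inactivated FBS.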

T1 sequence (Q92793 whole entry): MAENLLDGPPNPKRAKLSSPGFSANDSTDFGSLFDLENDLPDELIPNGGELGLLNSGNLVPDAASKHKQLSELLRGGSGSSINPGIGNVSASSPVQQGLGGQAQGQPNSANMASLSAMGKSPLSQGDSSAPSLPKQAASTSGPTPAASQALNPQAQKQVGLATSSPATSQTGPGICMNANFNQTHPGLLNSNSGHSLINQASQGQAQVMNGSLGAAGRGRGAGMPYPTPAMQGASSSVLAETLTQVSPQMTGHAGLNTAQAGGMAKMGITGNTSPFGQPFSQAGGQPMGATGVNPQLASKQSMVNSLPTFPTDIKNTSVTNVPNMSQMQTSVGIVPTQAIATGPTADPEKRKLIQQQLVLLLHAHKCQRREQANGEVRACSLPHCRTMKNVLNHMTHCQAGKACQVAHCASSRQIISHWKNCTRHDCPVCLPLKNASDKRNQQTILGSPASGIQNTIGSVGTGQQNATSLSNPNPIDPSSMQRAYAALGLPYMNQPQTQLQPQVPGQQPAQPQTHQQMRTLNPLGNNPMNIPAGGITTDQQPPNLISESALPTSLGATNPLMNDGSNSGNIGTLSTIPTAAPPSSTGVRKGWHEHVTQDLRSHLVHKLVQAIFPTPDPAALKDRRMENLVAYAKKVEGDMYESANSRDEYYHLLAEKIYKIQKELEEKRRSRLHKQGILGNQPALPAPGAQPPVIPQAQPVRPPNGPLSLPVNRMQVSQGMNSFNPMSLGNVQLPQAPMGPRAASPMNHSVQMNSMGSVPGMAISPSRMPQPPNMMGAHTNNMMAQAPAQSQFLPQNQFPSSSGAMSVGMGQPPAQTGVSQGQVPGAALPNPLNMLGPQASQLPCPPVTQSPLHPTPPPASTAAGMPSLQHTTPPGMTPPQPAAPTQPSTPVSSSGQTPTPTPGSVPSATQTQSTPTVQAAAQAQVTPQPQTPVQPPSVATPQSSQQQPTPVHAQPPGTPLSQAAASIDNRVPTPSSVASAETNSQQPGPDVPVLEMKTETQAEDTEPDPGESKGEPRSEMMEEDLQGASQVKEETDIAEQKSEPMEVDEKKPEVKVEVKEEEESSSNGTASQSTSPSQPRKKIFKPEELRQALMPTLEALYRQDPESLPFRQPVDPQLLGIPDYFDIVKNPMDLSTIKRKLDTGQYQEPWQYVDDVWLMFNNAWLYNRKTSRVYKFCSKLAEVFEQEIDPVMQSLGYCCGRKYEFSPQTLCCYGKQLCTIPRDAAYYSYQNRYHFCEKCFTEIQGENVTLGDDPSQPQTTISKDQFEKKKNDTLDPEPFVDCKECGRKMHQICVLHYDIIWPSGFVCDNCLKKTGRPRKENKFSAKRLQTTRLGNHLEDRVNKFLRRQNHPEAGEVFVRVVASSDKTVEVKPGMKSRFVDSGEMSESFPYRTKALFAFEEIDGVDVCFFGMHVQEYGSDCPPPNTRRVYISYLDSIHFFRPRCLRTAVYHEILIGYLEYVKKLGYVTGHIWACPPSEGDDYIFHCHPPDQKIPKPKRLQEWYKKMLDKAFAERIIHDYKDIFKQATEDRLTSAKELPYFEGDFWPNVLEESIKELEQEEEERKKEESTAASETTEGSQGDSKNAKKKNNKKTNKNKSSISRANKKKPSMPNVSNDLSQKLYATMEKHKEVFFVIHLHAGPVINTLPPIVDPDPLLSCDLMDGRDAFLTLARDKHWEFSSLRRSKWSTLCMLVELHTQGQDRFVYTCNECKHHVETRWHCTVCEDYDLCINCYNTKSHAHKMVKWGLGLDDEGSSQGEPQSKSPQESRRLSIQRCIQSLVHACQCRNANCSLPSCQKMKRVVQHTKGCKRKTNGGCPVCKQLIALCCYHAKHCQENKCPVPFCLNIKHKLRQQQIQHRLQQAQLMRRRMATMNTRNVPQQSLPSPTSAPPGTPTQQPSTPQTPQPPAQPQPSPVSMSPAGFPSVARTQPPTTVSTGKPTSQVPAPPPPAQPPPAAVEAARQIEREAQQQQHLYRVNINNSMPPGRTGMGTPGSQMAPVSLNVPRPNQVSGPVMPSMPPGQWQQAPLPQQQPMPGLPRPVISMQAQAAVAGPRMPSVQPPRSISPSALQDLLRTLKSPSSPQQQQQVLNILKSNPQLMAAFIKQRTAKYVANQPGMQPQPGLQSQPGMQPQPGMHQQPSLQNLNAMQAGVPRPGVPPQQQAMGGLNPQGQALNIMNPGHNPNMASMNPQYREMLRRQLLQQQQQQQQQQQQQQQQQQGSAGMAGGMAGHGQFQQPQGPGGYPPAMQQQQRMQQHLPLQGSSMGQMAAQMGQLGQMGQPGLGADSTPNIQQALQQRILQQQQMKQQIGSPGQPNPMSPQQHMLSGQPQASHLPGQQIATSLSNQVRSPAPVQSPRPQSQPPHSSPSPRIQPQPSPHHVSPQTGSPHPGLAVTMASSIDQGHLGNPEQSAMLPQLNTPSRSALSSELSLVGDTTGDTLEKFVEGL

DC50 [1] [nM] | Dmax [1] [%] | Dmax [2] [%] | DC50 [2] [nM] | P300 A549 2 h HiBit DMax (%) [2] | CBP A549 24 h HiBit DMax (%) [1] | SMILES
> 1000 | < 20 | > 80 | 1 to 9.9 | – | – | Cc1ccc(-c2ccc3c(c2)n(C)c(=O)n3C)c2cnc(-c3ccc(C(=O)NCC#Cc4ccc5occ(C6CCC(=O)NC6=O)c5c4)nc3)cc12 (stereo not shown) [Example A72, 5-(8-(1,3-dimethyl-2-oxo-2,3-dihydro-1H-benzo[d]imidazol-5-yl)-5-methylisoquinolin-3-yl)-N-(3-(3-(2,6-dioxopiperidin-3-yl)benzofuran-5-yl)prop-2-yn-1-yl)picolinamide]
> 1000 | < 20 | > 80 | 1 to 9.9 | – | – | CC(C)c1cc(C2=CC(C)(C)Oc3cc(-c4ccc(C(=O)NCC#Cc5ccc6occ(C7CCC(=O)NC7=O)c6c5)nc4)ncc32)cc2c1n(C)c(=O)n2C (stereo not shown) [Example A75, N-(3-(3-(2,6-dioxopiperidin-3-yl)benzofuran-5-yl)prop-2-yn-1-yl)-5-(4-(7-isopropyl-1,3-dimethyl-2-oxo-2,3-dihydro-1H-benzo[d]imidazol-5-yl)-2,2-dimethyl-2H-pyrano[3,2-c]pyridin-7-yl)picolinamide]
> 1000 | < 20 | > 80 | 1 to 9.9 | – | – | CC(C)c1cc(C2CC(C)(C)Oc3cc(-c4ccc(C(=O)NCC#Cc5ccc6occ(C7CCC(=O)NC7=O)c6c5)nc4)ncc32)cc2c1n(C)c(=O)n2C (stereo not shown) [Example A83, N-(3-(3-(2,6-dioxo-piperidin-3-yl)benzofuran-5-yl)prop-2-yn-1-yl)-5-(4-(7-isopropyl-1,3-dimethyl-2-oxo-2,3-dihydro-1H-benzo [d]imidazol-5-yl)-2,2-dimethyl-3,4-dihydro-2H-pyrano[3,2-c]pyridin-7-yl) picolinamide]
> 1000 | < 20 | > 80 | 10 to 99 | – | – | Cc1cc(-c2ccc3c(c2)n(C)c(=O)n3C)c2cnc(-c3ccc(C(=O)NCC#Cc4ccc5occ(C6CCC(=O)NC6=O)c5c4)nc3)cc2c1 (stereo not shown) [Example A84, 5-(8-(1,3-dimethyl-2-oxo-2,3-dihydro-1H-benzo[d]imidazol-5-yl)-6-methylisoquinolin-3-yl)-N-(3-(3-(2,6-dioxo-piperidin-3-yl)benzofuran-5-yl)prop-2-yn-1-yl) picolinamide]
> 1000 | < 20 | > 80 | 1 to 9.9 | – | – | Cn1c(=O)n(C)c2c(N3CC4CCC(C3)O4)nc(-c3cccc4cc(-c5ccc(C(=O)NCC#Cc6ccc7occ(C8CCC(=O)NC8=O)c7c6)nc5)ncc34)cc21 (stereo not shown) [Example A86, 5-(8-(4-(8-oxa-3-azabicyclo[3.2.1]octan-3-yl)-1,3-dimethyl-2-oxo-2,3-dihydro-1H-imidazo[4,5-c]pyridin-6-yl)isoquinolin-3-yl)-N-(3-(3-(2,6-dioxo-piperidin-3-yl)benzofuran-5-yl)prop-2-yn-1-yl)picolinamide]
> 1000 | < 20 | > 80 | 1 to 9.9 | – | – | Cc1cc(-c2cc3cccc(-c4cc(C)c5c(c4)n(C)c(=O)n5C)c3cn2)cnc1C(=O)NCC#Cc1ccc2occ(C3CCC(=O)NC3=O)c2c1 (stereo not shown) [Example A87, N-(3-(3-(2,6-dioxo-piperidin-3-yl)benzofuran-5-yl)prop-2-yn-1-yl)-3-methyl-5-(8-(1,3,7-trimethyl-2-oxo-2,3-dihydro-1H-benzo [d]imidazol-5-yl)isoquinolin-3-yl)picolinamide]
> 1000 | < 20 | > 80 | 1 to 9.9 | – | – | Cc1cc(-c2cccc3cc(-c4ccc(C(=O)NCC#Cc5ccc6occ(C7CCC(=O)NC7=O)c6c5)nc4)ncc23)cc2c1n(C)c(=O)n2C (stereo not shown) [Example A96, N-(3-(3-(2,6-dioxo-piperidin-3-yl)benzofuran-5-yl)prop-2-yn-1-yl)-5-(8-(1,3,7-trimethyl-2-oxo-2,3-dihydro-1H-benzo[d]imidazol-5-yl)isoquinolin-3-yl)picolinamide]

The remaining lines, values behind:

SMILES | DC50 [1] [nM] | Dmax [1] [%] | Dmax [2] [%] | DC50 [2] [nM] | P300 A549 2 h HiBit DMax (%) [2] | CBP A549 24 h HiBit DMax (%) [1]
Cc1cc(-c2ncc3c(n2)CCCN3c2ccc3c(c2)n(C)c(=O)n3C)cnc1C(=O)NCC#Cc1ccc2occ(C3CCC(=O)NC3=O)c2c1 (stereo not shown) [Example A79, 5-(5-(1,3-dimethyl-2-oxo-2,3-dihydro-1H-benzo[d]imidazol-5-yl)-5,6,7,8-tetrahydropyrido[3,2-d]pyrimidin-2-yl)-N-(3-(3-(2,6-dioxo-piperidin-3-yl)benzofuran-5-yl)prop-2-yn-1-yl)-3-methylpicolinamide] | > 1000 | < 20 | > 80 | 1 to 9.9 | – | –
Cc1cc(-c2ncc3c(n2)OCCN3c2cc(C)c3c(c2)n(C)c(=O)n3C)cnc1C(=O)NCC#Cc1ccc2occ(C3CCC(=O)NC3=O)c2c1 (stereo not shown) [Example A88, N-(3-(3-(2,6-dioxo-piperidin-3-yl)benzofuran-5-yl)prop-2-yn-1-yl)-3-methyl-5-(5-(1,3,7-trimethyl-2-oxo-2,3-dihydro-1H-benzo [d]imidazol-5-yl)-6,7-dihydro-5H-pyrimido [4,5-b][1,4]oxazin-2-yl)picolinamide] | > 1000 | < 20 | > 80 | > 1000 | – | –
CC(C)c1cc(N2CCOc3nc(-c4ccc(C(=O)NCC#Cc5ccc6occ(C7CCC(=O)NC7=O)c6c5)nc4)ncc32)cc2c1n(C)c(=O)n2C (stereo not shown) [Example A89, N-(3-(3-(2,6-dioxo-piperidin-3-yl)benzofuran-5-yl)prop-2-yn-1-yl)-5-(5-(7-isopropyl-1,3-dimethyl-2-oxo-2,3-dihydro-1H-benzo[d]imidazol-5-yl)-6,7-dihydro-5H-pyrimido [4,5-b][1,4]oxazin-2-yl)picolinamide] | > 1000 | < 20 | > 80 | > 1000 | – | –
Cc1cc(-c2ncc3c(n2)OCCN3c2ccc3c(c2)n(C)c(=O)n3C)cnc1C(=O)NCC#Cc1ccc2occ(C3CCC(=O)NC3=O)c2c1 (stereo not shown) [Example A92, 5-(5-(1,3-dimethyl-2-oxo-2,3-dihydro-1H-benzo[d]imidazol-5-yl)-6,7-dihydro-5H-pyrimido[4,5-b][1,4]oxazin-2-yl)-N-(3-(3-(2,6-dioxopiperidin-3-yl)benzofuran-5-yl)prop-2-yn-1-yl)-3-methylpicolinamide] | > 1000 | < 20 | – | 1 to 9.9 | A (“A”: > 80%) | –
Cc1cc(-c2ncc3c(n2)OCCN3c2ccc3c(c2)n(C)c(=O)n3C)cnc1C(=O)NCC#Cc1ccc2occ(C3CCC(=O)NC3=O)c2c1 (stereo not shown) [Example A93, 5-(5-(1,3-dimethyl-2-oxo-2,3-dihydro-1H-benzo[d]imidazol-5-yl)-6,7-dihydro-5H-pyrimido[4,5-b][1,4]oxazin-2-yl)-N-(3-(3-(2,6-dioxopiperidin-3-yl)benzofuran-5-yl)prop-2-yn-1-yl)-3-methylpicolinamide] | > 1000 | – | – | 10 to 99 | D (“D”: 20-39%) | E (“E”: < 20%)
CCN(c1cnc(-c2cnc(C(=O)NCC#Cc3ccc4occ(C5CCC(=O)NC5=O)c4c3)c(C)c2)nc1)c1cc(C2CCOCC2)c2c(c1)n(C)c(=O)n2C (stereo not shown) [Example A95, 5-(5-((1,3-dimethyl-2-oxo-7-(tetrahydro-2H-pyran-4-yl)-2,3-dihydro-1H-benzo [d]imidazol-5-yl)(ethyl)amino)pyrimidin-2-yl)-N-(3-(3-(2,6-dioxopiperidin-3-yl)benzofuran-5-yl)prop-2-yn-1-yl)-3-methylpicolinamide] | > 1000 | < 20 | > 80 | 1 to 9.9 | – | –
